Laboratory results reported in patent US7816099B1, “Enzyme assay and use thereof” (Myrexis, Inc., priority 2005, dated 2010).

Legend:
[1] = target: T1, Aurora-A (Homo sapiens, UniProt O14965); assay: High throughput fluorometric assay for the TPX2-stimulated protein kinase activity of Aurora-A; format: biochemical; settings: FIG. 4E; wild type or D274A mutant enzyme at 25 nM or 1.25 μM ADP; 5 μM ATP, 10 mM MgCl2
T1 construct: Aurora-A(101-403) (the latter protein was generated by cleavage of the GST fusion precursor with thrombin); GST (cleaved yes); made in house
T1 sequence (O14965 101-403): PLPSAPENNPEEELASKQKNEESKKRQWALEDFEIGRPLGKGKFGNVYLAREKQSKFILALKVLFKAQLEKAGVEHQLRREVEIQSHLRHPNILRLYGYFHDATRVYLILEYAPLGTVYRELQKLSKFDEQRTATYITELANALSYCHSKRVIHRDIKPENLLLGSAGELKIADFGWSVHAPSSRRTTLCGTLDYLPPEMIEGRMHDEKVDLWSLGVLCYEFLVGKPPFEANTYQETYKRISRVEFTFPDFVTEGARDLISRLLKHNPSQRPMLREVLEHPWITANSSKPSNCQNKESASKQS
T1 sequence (Q9ULW0 1-50 partner limits assumed): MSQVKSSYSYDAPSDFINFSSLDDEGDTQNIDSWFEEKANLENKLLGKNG
Protocol: High throughput fluorometric assay for the TPX2-stimulated protein kinase activity of Aurora-A. All the experiments were conducted using 50 mM Tris-HCl, pH 7.5, 5 μM ATP, 10 mM MgCl2 as the assay buffer. The data shown on FIGS. 4A and 4B were generated using two-step assay procedure including Aurora-A-catalyzed kinase reaction followed by the assay of ADP produced. All other experiments were performed using single step assay format. FIG. 4A, comparative analysis of kinase activities of the wild type enzyme and D274A mutant protein performed in the absence of TPX-2. FIG. 4B, effects of GST-TPX2(1-50) on kinase activity. FIG. 4C, time course of signal development for the assays conducted using 25 nM kinase in the absence or in the presence of 50 nM GST-TPX2(1-50). The D274A mutant enzyme was used as negative control. FIG. 4D, time dependence of S/B ratio calculated using data shown on FIG. 4C. The background was defined as the fluorescence intensity of the samples supplemented with the mutant Aurora-A. FIG. 4E, inhibition of Aurora-A activity by staurosporine. The assays were performed using wild type or D274A mutant enzyme at 25 nM concentrations or 1.25 μM ADP. FIG. 4F, SDS-PAGE analysis of the recombinant GST-TPX2(1-50) and Aurora-A(101-403) (the latter protein was generated by cleavage of the GST fusion precursor with thrombin).

[2] = target: T2, Mst4 kinase (Homo sapiens, UniProt Q9P289); assay: High throughput assay for the Mst4 protein kinase activity; format: biochemical; settings: FIG. 5C; 25 nM protein kinase; 1.25 μM ADP in control samples
T2 construct: SDS-PAGE analysis of GST-Mst4(1-317) purified from bacterial cells; made in house; host or cells: bacterial cells
T2 sequence (Q9P289 1-317): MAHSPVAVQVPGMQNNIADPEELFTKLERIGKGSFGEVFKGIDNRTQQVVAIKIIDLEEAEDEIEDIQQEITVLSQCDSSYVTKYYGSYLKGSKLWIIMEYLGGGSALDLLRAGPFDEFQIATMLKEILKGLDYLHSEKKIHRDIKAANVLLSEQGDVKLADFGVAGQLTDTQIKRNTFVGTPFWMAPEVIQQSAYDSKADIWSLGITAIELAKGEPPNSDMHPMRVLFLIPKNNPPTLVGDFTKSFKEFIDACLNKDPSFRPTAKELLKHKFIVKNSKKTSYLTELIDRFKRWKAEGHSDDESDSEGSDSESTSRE
Protocol: High throughput assay for the Mst4 protein kinase activity. […] FIG. 5C, inhibition of Mst4 kinase by staurosporine. The assay was performed using 25 nM protein kinase. The combination of Mst4 and ATP was substituted with 1.25 μM ADP in control samples.

Q: Which results are given for `CN[C@@H]1C[C@H]2O[C@@](C)([C@@H]1OC)n1c3ccccc3c3c4c(c5c6ccccc6n2c5c31)C(=O)NC4` [staurosporine]?
A: inhibition of Aurora-A activity [1]: inhibition; inhibition of Mst4 kinase [2]: inhibition
